Results on five compounds are retold here after publication PMC11343938, “Micro-scale screening of genetically modified Fusarium fujikuroi strain extends the apicidin family” (Natural Products and Bioprospecting, 2024).

One data set deals with HepG2. Conditions: human liver carcinoma cell line HepG2; cited from earlier work.
Data set [1] is described as follows: in vitro. Conditions: rat.
The target of a further data set is T1, HDAC2 (Homo sapiens, UniProt Q92769).
T1 construct: purchased BPS Bioscience 50052
The experiment in a line: biochemical. Conditions: mean ± SD of at least two independent experiments. The procedure:
(§1) In vitro inhibitory activity against HDAC1-3 and 6 was determined using our previously published assay protocol. […] Next, the total assay volume (50 µL, max. 1% DMSO) was incubated at 37 °C for 90 min. Subsequently, 50 µL trypsin solution (0.4 mg/mL trypsin in buffer: 50 mM Tris- HCl, pH 8.0, 100 mM NaCl) was added, followed by additional 30 min of incubation at 37 °C. Fluorescence (excitation: 355 nm, emission: 460 nm) was measured using a FLUOstar OPTIMA microplate reader (BMG LABTECH). The IC50 values were determined by generating normalized dose–response curves using the build-in "log(inhibitor) vs. response (three parameters)" equation provided by GraphPad Prism (GraphPad Prism 9.0, San Diego, USA).

The test system of the next data set is Plasmodium falciparum. To be noted: cited from earlier work.
The next data set deals with P. falciparum NF54. The experiment in a line: In vitro antiparasitic activity against P. falciparum. The data set is classed as cell-based. To be noted: Plasmodium falciparum, P. falciparum NF54, intraerythrocytic forms, read-out: IC50 inhibition of P. falciparum growth. The procedure: (§2) Furthermore, the whole set of isolated compounds was tested in vitro against T. brucei rhodesiense (bloodstream trypomastigotes) and P. falciparum (intraerythrocytic forms). All assays were performed using validated protocols at the Swiss TPH [34].

In a further data set the target is T2, HDAC3/NcoR2 (Homo sapiens, UniProt O15379).
T2 construct: purchased BPS Bioscience 50003
The experiment in a line: In vitro HDAC inhibition assay (ZMAL substrate), HDAC3. To be noted: mean ± SD of at least two independent experiments. The data set is classed as biochemical. The procedure:
as §1, with “USA). Compounds were tested in duplicates, reported mean IC50 values, including standard deviation, are calculated from at least two independent experiments.” for “USA).”

The target in another data set is T3, HDAC1 (Homo sapiens, UniProt Q13547).
T3 construct: purchased BPS Bioscience 50051
Kind of data set: In vitro HDAC inhibition assay (ZMAL substrate), HDAC1. It is filed as biochemical. As for the experimental part: as §1, with “USA). Compounds were tested in duplicates, reported mean IC50 values, including standard deviation, are calculated from at least two independent experiments.” for “USA).”

Another data set concerns the target T4, HDAC6 (Homo sapiens, UniProt Q9UBN7).
T4 construct: purchased BPS Bioscience 50006
T4 sequence (Q9UBN7 1-1215): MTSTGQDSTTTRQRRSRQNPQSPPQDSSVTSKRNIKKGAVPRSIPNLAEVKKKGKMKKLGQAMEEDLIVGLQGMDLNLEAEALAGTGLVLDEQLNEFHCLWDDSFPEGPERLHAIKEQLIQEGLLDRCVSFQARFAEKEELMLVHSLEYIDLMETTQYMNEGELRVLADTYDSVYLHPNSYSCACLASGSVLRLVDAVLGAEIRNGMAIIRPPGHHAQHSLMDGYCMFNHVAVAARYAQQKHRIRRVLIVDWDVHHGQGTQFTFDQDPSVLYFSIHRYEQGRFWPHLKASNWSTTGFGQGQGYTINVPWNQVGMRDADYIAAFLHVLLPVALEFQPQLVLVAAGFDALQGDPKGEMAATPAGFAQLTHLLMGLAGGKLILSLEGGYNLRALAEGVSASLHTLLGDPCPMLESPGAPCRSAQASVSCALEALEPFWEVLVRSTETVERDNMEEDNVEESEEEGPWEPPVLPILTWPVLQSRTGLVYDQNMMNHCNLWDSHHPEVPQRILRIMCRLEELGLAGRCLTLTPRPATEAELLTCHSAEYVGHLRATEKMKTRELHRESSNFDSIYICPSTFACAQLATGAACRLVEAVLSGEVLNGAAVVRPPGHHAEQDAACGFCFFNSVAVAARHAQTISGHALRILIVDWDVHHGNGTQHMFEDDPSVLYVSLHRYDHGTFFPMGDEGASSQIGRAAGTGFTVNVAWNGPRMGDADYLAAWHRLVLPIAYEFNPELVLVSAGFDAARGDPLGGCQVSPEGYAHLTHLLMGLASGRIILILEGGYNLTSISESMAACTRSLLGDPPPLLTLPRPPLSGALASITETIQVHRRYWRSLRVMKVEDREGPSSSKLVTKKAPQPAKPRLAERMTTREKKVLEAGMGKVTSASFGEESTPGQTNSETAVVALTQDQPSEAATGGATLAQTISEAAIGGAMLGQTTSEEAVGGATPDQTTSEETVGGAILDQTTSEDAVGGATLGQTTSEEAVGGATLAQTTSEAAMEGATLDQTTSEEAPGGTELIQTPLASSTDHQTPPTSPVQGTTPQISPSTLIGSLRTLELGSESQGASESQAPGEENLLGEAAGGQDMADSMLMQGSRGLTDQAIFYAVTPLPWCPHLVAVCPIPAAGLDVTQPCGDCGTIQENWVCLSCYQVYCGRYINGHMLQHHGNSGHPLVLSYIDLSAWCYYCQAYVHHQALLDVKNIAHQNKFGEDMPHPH
The experiment in a line: In vitro HDAC inhibition assay (ZMAL substrate), HDAC6. It is filed as biochemical. The procedure:
as §1, with “USA). Compounds were tested in duplicates, reported mean IC50 values, including standard deviation, are calculated from at least two independent experiments.” for “USA).”

A further data set relates to HepG2 (HB-8065). Conditions: resazurin assay, 24 h incubation, 0.01-100 µM tested.
A further data set relates to A549 (CCL-185). To be noted: resazurin assay, 24 h incubation, 0.01-100 µM tested.
For data set [2], the system named is Trypanosoma brucei rhodesiense STIB 900. Kind of data set: In vitro antiparasitic activity against T. brucei rhodesiense. It is filed as cell-based. Conditions: bloodstream trypomastigotes. As for the experimental part: as §2
Data set [3] in a line: in vitro. Conditions: human.
[4] abbreviates: mean ± SD of at least two independent experiments, [b] < 30% inhibition at the stated concentration, read-out: IC50 HDAC1.
The mark [5] stands for this setting: mean ± SD of at least two independent experiments, [b] < 30% inhibition at the stated concentration, read-out: IC50 HDAC6.

Like-named read-outs stand apart in the source and are kept apart here. Square brackets hold non-standard residues; d marks the D form. Peptide text beside a SMILES is read from it. Trp(1-OMe) = COn1cc(C[C@H](N)C(=O)O)c2ccccc21; Asu = N[C@@H](CCCCCC(=O)O)C(=O)O; dPip = O=C(O)[C@H]1CCCCN1

T3 sequence (Q13547 whole entry): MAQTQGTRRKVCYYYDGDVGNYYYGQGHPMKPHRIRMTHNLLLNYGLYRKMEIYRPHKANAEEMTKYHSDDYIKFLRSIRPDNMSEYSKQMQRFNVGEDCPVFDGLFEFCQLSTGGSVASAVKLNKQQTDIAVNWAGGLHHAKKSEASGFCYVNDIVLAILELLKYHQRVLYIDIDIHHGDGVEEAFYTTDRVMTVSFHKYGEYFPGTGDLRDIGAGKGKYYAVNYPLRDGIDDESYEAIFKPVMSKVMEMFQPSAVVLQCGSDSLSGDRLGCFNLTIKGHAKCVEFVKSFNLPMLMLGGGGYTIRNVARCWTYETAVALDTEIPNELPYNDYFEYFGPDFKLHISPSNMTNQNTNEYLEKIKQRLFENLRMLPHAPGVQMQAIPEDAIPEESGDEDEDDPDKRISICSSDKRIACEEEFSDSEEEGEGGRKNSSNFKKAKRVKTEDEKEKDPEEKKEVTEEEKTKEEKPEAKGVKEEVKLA
T1 sequence (Q92769 whole entry): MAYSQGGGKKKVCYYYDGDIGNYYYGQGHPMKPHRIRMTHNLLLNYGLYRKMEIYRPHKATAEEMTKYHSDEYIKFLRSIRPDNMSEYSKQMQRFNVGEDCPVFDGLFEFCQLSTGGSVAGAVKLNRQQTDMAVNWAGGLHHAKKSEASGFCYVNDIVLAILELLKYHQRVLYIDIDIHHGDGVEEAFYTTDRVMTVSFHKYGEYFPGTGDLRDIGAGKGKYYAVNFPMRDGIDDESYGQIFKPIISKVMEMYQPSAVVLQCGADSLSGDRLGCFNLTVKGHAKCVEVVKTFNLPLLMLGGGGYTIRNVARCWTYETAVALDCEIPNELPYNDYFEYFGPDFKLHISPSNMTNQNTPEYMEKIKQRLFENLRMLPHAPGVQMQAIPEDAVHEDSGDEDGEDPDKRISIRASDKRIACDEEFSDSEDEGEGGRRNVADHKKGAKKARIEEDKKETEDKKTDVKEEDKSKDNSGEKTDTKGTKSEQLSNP
T2 sequence (O15379 whole entry): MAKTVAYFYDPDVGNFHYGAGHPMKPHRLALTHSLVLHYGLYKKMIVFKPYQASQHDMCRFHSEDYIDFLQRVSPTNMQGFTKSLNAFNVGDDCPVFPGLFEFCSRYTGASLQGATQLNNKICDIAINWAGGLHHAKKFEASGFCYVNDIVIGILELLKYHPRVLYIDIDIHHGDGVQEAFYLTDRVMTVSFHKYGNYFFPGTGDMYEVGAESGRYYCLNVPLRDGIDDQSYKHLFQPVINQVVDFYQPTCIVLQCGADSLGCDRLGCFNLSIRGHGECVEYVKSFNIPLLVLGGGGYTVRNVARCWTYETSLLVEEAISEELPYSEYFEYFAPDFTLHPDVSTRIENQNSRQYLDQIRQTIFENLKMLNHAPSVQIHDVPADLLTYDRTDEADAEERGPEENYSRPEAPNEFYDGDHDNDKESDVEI
T2 sequence (Q9Y618 395-489 partner limits assumed): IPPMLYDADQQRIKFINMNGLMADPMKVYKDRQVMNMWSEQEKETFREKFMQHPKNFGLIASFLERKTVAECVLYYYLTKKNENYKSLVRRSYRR

On to `COn1cc(C[C@@H]2NC(=O)[C@H](CCCCCC(=O)O)NC(=O)[C@H]3CCCCN3C(=O)[C@H](Cc3ccccc3)NC2=O)c2ccccc21` [Apicidin F (1), 6-[(3S,6S,9S,12R)-3-benzyl-6-[(1-methoxyindol-3-yl)methyl]-2,5,8,11-tetraoxo-1,4,7,10-tetrazabicyclo[10.4.0]hexadecane-9-yl]hexanoic acid] (cyclo([Asu][Trp(1-OMe)]F[dPip])), for which the IC50 is 110000 nM in the data set on HepG2; 63700 nM in the data set “in vitro [1]”; 164 ± 17 nM against HDAC2; 670 nM in the data set with Plasmodium falciparum (read-out: IC50 antiparasitic activity against Plasmodium falciparum); 510 nM in the data set with P. falciparum NF54; 202 ± 26 nM on HDAC3/NcoR2. Also, the IC50 on HDAC1 (setting [4]) is 102 ± 4 nM; at HDAC6 (setting [5]) it was 6380 ± 1570 nM.

Take `COn1cc(C[C@@H]2NC(=O)[C@H](CCCCCCO)NC(=O)[C@H]3CCCCN3C(=O)[C@H](Cc3ccccc3)NC2=O)c2ccccc21` [Apicidin K (3), (3S,6S,9S,12R)-3-benzyl-9-(6-hydroxyhexyl)-6-[(1-methoxyindol-3-yl)methyl]-1,4,7,10-tetrazabicyclo[10.4.0]hexadecane-2,5,8,11-tetrone]: the IC50 in “in vitro [1]” was 7200 nM; with P. falciparum NF54, 1100 nM; on HDAC1 (setting [4]) it was greater than 3330 nM; at HDAC6 (setting [5]), greater than 10000 nM.

In the case of `COn1cc(C[C@@H]2NC(=O)[C@H](CCCCCCO)NC(=O)[C@H]3CCCN3C(=O)[C@H](Cc3ccccc3)NC2=O)c2ccccc21` [Apicidin L (4), (3S,6S,9S,14aR)-9-benzyl-3-(6-hydroxyhexyl)-6-[(1-methoxy-1H-indol-3-yl)methyl]decahydropyrrolo[1,2-a][1,4,7,10]tetraazacyclododecine-1,4,7,10-tetraone], the IC50 in “in vitro [1]” is 20000 nM; in the data set with P. falciparum NF54 it was 2100 nM; on HDAC1, greater than 10000 nM; on HDAC6, greater than 10000 nM. The “IC50 cytotoxicity HepG2” value in the data set on HepG2 (HB-8065) was “no IC50 could be calculated”. The “IC50 cytotoxicity A549” value with A549 (CCL-185) is given as “no IC50 could be calculated”. Also, the “Activity against Trypanosoma brucei rhodesiense STIB 900” value in data set [2] is on record as “no effect”.

With `CCC(=O)CCCCC[C@@H]1NC(=O)[C@H]2CCCCN2C(=O)[C@H]([C@@H](C)CC)NC(=O)[C@H](Cc2cn(OC)c3ccccc23)NC1=O` [apicidin (5), apicidin], the IC50 in the data set with HepG2 is 1300 nM; in the data set on Plasmodium falciparum (read-out: IC50 in the P. falciparum assay), 200 nM; in the data set “in vitro [3]”, 2700 nM.

For the compound `COn1cc(C[C@@H]2NC(=O)[C@H](CCCCCC(=O)O)NC(=O)[C@H]3CCCN3C(=O)[C@H](Cc3ccccc3)NC2=O)c2ccccc21` [Apicidin J (2), 6-[(3S,6S,9S,12R)-3-benzyl-6-[(1-methoxyindol-3-yl)methyl]-2,5,8,11-tetraoxo-1,4,7,10-tetrazabicyclo[10.3.0]pentadecane-9-yl]hexanoate] (cyclo([Asu][Trp(1-OMe)]F[dP])), the half-inhibitory concentration (IC50) in the data set “in vitro [1]” is 46500 nM; against HDAC2, 633 ± 28 nM; with P. falciparum NF54, 1100 nM; against HDAC3/NcoR2, 754 ± 112 nM; on HDAC1 (setting [4]), 342 ± 18 nM; at HDAC6 (setting [5]) it was 9870 ± 1400 nM. Moreover, the “IC50 cytotoxicity HepG2” value in the data set on HepG2 (HB-8065) is given as “no IC50 could be calculated”. Besides, the “IC50 cytotoxicity A549” value in the data set with A549 (CCL-185) is “no IC50 could be calculated”.
